Consider two compounds from patent US20060130266A1, “Dermal drug delivery system” (priority 2004, published 2006).

A short description of data set [1]: In vitro skin permeation, Franz cell pseudo-finite dose study (acyclovir and CF). The format is in vitro ADME, human. Conditions: for Amount in receptor after 60 min: Zovirax cream spiked with 3H-ACV; for EF: acyclovir, vs untreated skin. How it is done: Zovirax® spiked with ^3H-ACV was used as the formulation for the entire study. Briefly, 300 μl of ^3H ACV was placed into a 1.5 ml centrifuge tube and evaporated off, over a stream of air. Approximately 1 g of Zovirax® was weighed into the centrifuge tube and carefully mixed with a fine spatula to achieve a homogenous mix. To test for homogeneity, 3 random samples (top, middle and bottom) were taken and determined for radioactivity via scintillation counting.
(§1) Anodal treatment was conducted by placing the anode electrode in the donor compartment and the opposite electrode (cathode) in the receptor compartment of the Franz cell. Cathodal iontophoresis was conducted vice versa. The current treatment protocols employed were either • (a) iontophoresis: dose was administered simultaneously with current or • (b) post-iontophoresis: dose applied immediately after skin exposure to current. • A current intensity of 0.40 mA was employed for a 10 min period during both protocols. Novel Device (Rotatinig Brush) Procedure
Finite dose permeation experiments were performed using similar conditions as described above. The Franz cell studies were carried out without the use of a donor well, in order to allow for the placement of the iontophoretic device over the epidermal membrane. […] The effectiveness of the seal was confirmed if leakage of receptor fluid from the region of contact between skin and adhesive was not observed.
A formulation with a target dose of approximately 9±1 mg/cm^2 (ACV) and 20±2 mg/cm^2 (CF) was applied to the epidermal membrane surface using a previously calibrated positive displacement pipette. Selected control experiments were then performed as described above (anodal and cathodal iontophoresis was performed by simultaneous application of dose and current over a 10 min period for CF and ACV respectively). At certain time intervals 200 μl of the receiver fluid was carefully withdrawn from the receiver fluid (maximum duration of 4 h). Approximately 4 ml of scintillation cocktail was then added and the ACV sample analysed by scintillation counting, whereas the other penetrant was assayed via the HPLC method already described.

A short description of data set [2]: In vitro skin permeation of angiotensin II, Franz cell infinite dose, EIA analysis. In kind it is in vitro ADME, human. The method, then: Analysis of the peptide was carried out using an enzyme immunoassay (EIA) as described in the EIA booklet. Briefly, a competitive enzyme immunoassay which detects Ang II in biological matrices was employed. The principle of the assay is based upon the competition for antibody binding sites between biotinylated and non-biotinylated peptides. The biotin group on the biotinylated peptide is then conjugated to SA-HRP which in turn reacts with another substrate ([…]) leading to the formation of colour. The absorbance recorded from each well is a direct measure of the extent of binding for each peptide with the antibody. Absorbance was measured using a spectrophotometer. The method was validated by calibrating the response at different concentrations of the peptide (data not shown) and also the ability of the method to assess different concentrations of the penetrant in the presence of any matrices was investigated.
as §1, with “This is a well established physical method of enhancing skin permeation, in vitro, which involves the use of electric current to permeabilise skin and/or promote the migration of drug ions across skin (Cullander, 1992; Guy et al., 2001; Kalia et al., 2004). Anodal” for “Anodal”

[3] abbreviates: brush B 10 s, 300 Nm^−2, 80 rpm.
Setting [4] is: brush B 30 s, 300 Nm^−2, 80 rpm.
Where [5] appears, read: brush B 60 s, 300 Nm^−2, 80 rpm.

Structures are written as SMILES.

On to `Nc1nc2c(ncn2COCCO)c(=O)[nH]1` [acyclovir, Acyclovir], for which the “Amount in receptor after 60 min” value in data set [1] (setting [3]) is reported as 5.06 ± 1.88 µg/cm^2; in data set [1] (setting [4]), 12.5 ± 4.02 µg/cm^2; in data set [1] (setting [5]), 30.91 ± 5.45 µg/cm^2; in data set [1] (cathodal iontophoresis 10 min, 0.40 mA), 4.95 ± 2.35 µg/cm^2; in data set [1] (untreated skin), 0.14 ± 0.08 µg/cm^2. In addition, the EF in data set [1] (setting [3]) turned out to be 36; in data set [1] (setting [4]), 89; in data set [1] (setting [5]), 220; in data set [1] (cathodal iontophoresis 10 min) it was 35. For the same compound, in data set [1] (brush B at maximum treatment time (60 s)), the “Increase in enhancement factor compared to iontophoresis” value is recorded as “ca. 600%”.

Turning to `CC[C@H](C)[C@H](NC(=O)[C@H](Cc1ccc(O)cc1)NC(=O)[C@@H](NC(=O)[C@H](CCCNC(=N)N)NC(=O)[C@@H](N)CC(=O)O)C(C)C)C(=O)N[C@@H](Cc1cnc[nH]1)C(=O)N1CCC[C@H]1C(=O)N[C@@H](Cc1ccccc1)C(=O)O` [Ang II, Angiotensin II], the EF in data set [2] (4 h, delipidisation vs untreated skin) was determined as 58; in data set [2] (4 h, post-iontophoresis vs untreated skin), 1.7; in data set [2] (4 h, rotating brush (brush B) vs untreated skin), 72; in data set [2] (4 h, tape-stripping vs untreated skin) it was 53; in data set [2] (24 h, delipidisation vs untreated skin), 49; in data set [2] (24 h, post-iontophoresis vs untreated skin) it was 6. Moreover, the EF in data set [2] (24 h, rotating brush (brush B) vs untreated skin) came to 63; in data set [2] (24 h, tape-stripping vs untreated skin) it was 27. The “Amount in receptor after 4 h” value in data set [2] (delipidisation) is on record as 15.71 ± 2.85 ng/cm^2; in data set [2] (post-iontophoresis, value on sample re-analysis), 0.46 ± 0.15^+ ng/cm^2; in data set [2] (rotating brush (brush B)), 19.45 ± 0.55 ng/cm^2; in data set [2] (tape-stripping) it was 14.44 ± 4.73 ng/cm^2; in data set [2] (untreated skin, 1 mg/ml in PBS), 0.27 ± 0.23 ng/cm^2. In addition, the “Amount in receptor after 24 h” value amounted to 83.03 ± 24.28 ng/cm^2 in data set [2] (delipidisation); 10.02 ± 6.28 ng/cm^2 in data set [2] (post-iontophoresis); 107.49 ± 19.66 ng/cm^2 in data set [2] (rotating brush (brush B)); 46.93 ± 15.62 ng/cm^2 in data set [2] (tape-stripping); 1.69 ± 1.01 ng/cm^2 in data set [2] (untreated skin, 1 mg/ml in PBS).
